From patent publication EP0053015A1, “1-Phenylthio-2-aminopropane derivatives, their production and use” (Takeda Chemical Industries, Ltd., priority 1980, dated 1982) come the findings set out here.

Common to all, as to assay type: in vivo
Assay [1] in a line: Suppression of food intake in mice. As to conditions: Mus musculus, male ICR mice, 50 mg/kg oral, given 0.5 hour before feeding, food intake of control animals = 100%, (NS) = not statistically significant. On the procedure: Male ICR mice, 7 weeks old, were acclimatised to six-hours-a-day feeding (CE-2 powder, Clea Japan) for 7 days and those animals showing a constant food intake were used in groups of 6 individuals. Each test compound was dissolved in a 5% aqueous solution of gum arabic and orally administered to mice at a dose level of 50 mg/kg as compound (I) at 0.5 hour before feeding on the 8th day. Control animals received a 5% solution of gum arabic only. Each figure in the table is the percent food intake with the food intake of control animals being taken as 100%.
In the table, the figures accompanied by NS in parentheses mean that the difference from control was not statistically significant. All other figures were significant at from P<0.02 to P<0.001.

Assay [2] is described as follows: Inventors' study of antiobesity, antidiabetic and anorectic effect of prior-art compounds. The following applies: according to the inventors' study; result in words. The text has this: South African Patent No. 67/3108 describes the anti- depressive activity of 1-(4-chlorophenylthio)-2-aminopropane of the formula: [drawing 8] but this patent also says nothing about antiobesity or antidiabetic action. […] In contrast, the compounds of this invention exert strong and long-lasting antiobesity and antidiabetic effects because of their having the particular substituent (halogen) at the particular (para) position of the benzene ring and having the particular secondary amine-type structure.

A short description of assay [3]: Suppression of food intake in rats. The following applies: male Sprague-Dawley rats fasted for 24 hours, 20 mg/kg by oral gavage, food given after 0.5 hour; control = 100%; ** P<0.01, * P<0.05. On the procedure:
Male 7-week-old rats of Sprague-Dawley strain were fasted for 24 hours and assigned to groups of 6 animals. A solution of .20 mg/kg of each test compound in distilled water was administered by oral gavage and after 0.5 hour, food (CE-2 powder) was given. The food intake in each group was measured at 1 hour and 2 hours thereafter and the results were compared with the food intake of control animals given distilled water only. The figures in the table denote the food intake percents, with the food intake of control animals being taken as 100%. By the term "gavage" is meant compulsory feeding.

In another assay the test system is fatty acid synthesis. Briefly: Inhibition of fatty acid synthesis (glucose-U-14C incorporation into fatty acid fractions). The following applies: Rattus norvegicus, Sprague-Dawley rats, 20 mg/kg oral, glucose-U-14C 30 minutes later, sacrificed after 60 minutes, versus distilled water control. On the procedure: Male 7-week-old Sprague-Dawley rats were acclimatised to 2-hours-a-day feeding (CE-2 powder, Clea Japan) for 10 days and assigned to groups of 5 animals. The animals were orally given 20 mg/kg of l-(4-chlorophenylthio)-2-methylaminopropane fumarate as dissolved in distilled water, and,30 minutes thereafter, glucose-U-^14C (85 pCi/3 g/kg) was orally administered. After 60 minutes, each animal was sacrificed and the radioactivities incorporated into the fatty acid fractions of the liver and the epididymal adipose tissues were determined.

The mark [4] stands for this setting: 1 h, read-out: Food intake (%) 1 hour after administration.
The mark [5] stands for this setting: read-out: Food intake (%) 0.5 hour after administration.

Counter-ions that a name gives are not always drawn. Like-named read-outs stand apart in the source and are kept apart here.

Regarding `CNC(C)CSc1ccc(Cl)c(Cl)c1` (racemic) [Example 7, l-(3,4-dichlorophenylthio)-2-methylamino-propane], the response vs control in vivo at 50 mg/kg in assay [1] (setting [4]) was 63.2%; in assay [1] (setting [5]), 54.9%.
As to `CC(N)CSc1ccc(Cl)cc1` (centres unmarked) [1-(4-chlorophenylthio)-2-aminopropane, reference compound], the response vs control in vivo at 50 mg/kg in assay [1] (setting [4]) came out at 85.5%; in assay [1] (setting [5]), 69.5%. In assay [2], the anorectic effect entry was “only a weak transient anorectic effect”.
In the case of `CNC(C)CSc1ccccc1` (centres unmarked) [1-phenylthio-2-methyl-aminopropane, reference compound], the response vs control in vivo at 50 mg/kg was 112% in assay [1] (setting [4]) and 106% in assay [1] (setting [5]).
A word on the inhibition: it is the share of the control response that was lost under treatment. Regarding `CNC(C)CSc1ccc(Cl)cc1.O=C(O)/C=C/C(=O)O` (centres unmarked) [Example 1, 1-(4-chlorophenylthio)-2-methylaminopropane fumarate], the response vs control in vivo at 50 mg/kg in assay [1] (setting [4]) was 55.2%; in assay [1] (setting [5]) it was 43.2%. For the same compound, in assay [3], the “Food intake (%) 1 hour after administration” value is 43.9* %. The “Food intake (%) 2 hours after administration” value in assay [3] is on record as 61.9** %. Besides, the inhibition at 20 mg/kg turned out to be 58.8% in the assay with fatty acid synthesis (adipose tissues, read-out: relative inhibition rate, radioactivity incorporated into the fatty acid fraction of the epididymal adipose tissues) and 46.6% in the assay on fatty acid synthesis (liver, read-out: relative inhibition rate, radioactivity incorporated into the fatty acid fraction of the liver).
With `CCNC(C)CSc1ccc(Cl)cc1` (centres unmarked) [Example 3, 1-(4-chlorophenylthio)-2-ethylaminopropane fumarate], the response vs control in vivo at 50 mg/kg in assay [1] (setting [4]) worked out at 69.4%; in assay [1] (setting [5]) it was 40.7%.
Regarding `CC(CSc1ccc(Cl)cc1)NCCO` (centres unmarked) [Example 4, 1-(4-chlorophenylthio)-2-(2-hydroxyethylamino)propane fumarate], the response vs control in vivo at 50 mg/kg in assay [1] (setting [4]) was determined as 67.6%; in assay [1] (setting [5]) it was 65.9%.
The matching figures for `CNC(C)CSc1ccc(F)cc1` (centres unmarked) [Example 5, 1-(4-fluorophenylthio)-2-methylaminopropane]: 66.5% and 57.9%.
In the same order, the values of `CNC(C)CSc1ccc(Br)cc1` (centres unmarked) [Example 6, 1-(4-bromophenylthio)-2-methylamino-propane] are 72.1% and 70.8%.
`CN[C@@H](C)CSc1ccc(Cl)cc1` [Example 8, (S)-l-(4-chlorophenylthio)-2-methylaminopropane fumarate]: in assay [3], the “Food intake (%) 1 hour after administration” value was 38.8** % and the “Food intake (%) 2 hours after administration” value is 56.1** %.
